These are literature values, as cited in patent publication US7759335B2, “Cannabinoid receptor antagonists/inverse agonists useful for treating metabolic disorders, including obesity and diabetes” (Jenrm Discovery, Inc., priority 2008, dated 2010).

The conditions of this series: patients with type 2 diabetes not treated with other anti-diabetic medications; after six months of treatment; baseline value 7.9; placebo reduction 0.3%.

For the compound `Cc1c(C(=O)NN2CCCCC2)nn(-c2ccc(Cl)cc2Cl)c1-c1ccc(Cl)cc1` [rimonabant], the HbA1c levels lowered is recorded as 0.8%.
